Data: the supplement of paper PMC10307832

Legend:
Assay in all cases: relative viability (nuclei count vs DMSO), 5 days (fraction); higher = more cells survive
[1] = compound: Cc1nc(C(=O)NCC(=O)O)c(O)c2ccc(Oc3ccccc3)cc12 [FG-4592] + Cc1cc(Nc2cc(N3CCN(C)CC3)nc(Sc3ccc(NC(=O)C4CC4)cc3)n2)n[nH]1 [Tozasertib] (partner 0.1 µM)
Summary of the method: (§1)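 Relative viability equals treated-well nuclei counts divided by vehicle-well nuclei counts. Counts came from 4× images of lung cancer cell lines grown in 1536-well plates for 5 days after pin-tool dosing on the day after seeding. Dosing used one drug alone or a fixed anchor-drug dose plus five library-drug doses (not always all listed) in √10 steps, and values are medians of duplicate plates.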

[2] = compound: Cc1nc(C(=O)NCC(=O)O)c(O)c2ccc(Oc3ccccc3)cc12 [FG-4592] + N=C(N)NC(=N)NCCc1ccccc1 [Phenformin] (partner 250 µM)
Summary of the method: as §1

[3] = compound: Cc1nc(C(=O)NCC(=O)O)c(O)c2ccc(Oc3ccccc3)cc12 [FG-4592] + CC(=O)c1c(C)c2cnc(Nc3ccc(N4CCNCC4)cn3)nc2n(C2CCCC2)c1=O [Palbociclib] (partner 0.5 µM)
Summary of the method: as §1

[4] = compound: Cc1nc(C(=O)NCC(=O)O)c(O)c2ccc(Oc3ccccc3)cc12 [FG-4592] + Cc1nc(NC(=O)N2CCC[C@H]2C(N)=O)sc1-c1ccnc(C(C)(C)C(F)(F)F)c1 [Alpelisib] (partner 2 µM)
Summary of the method: as §1

Cell Line	relative viability ([1]; first compound 0.08 µM)	relative viability ([1]; first compound 0.253 µM)	relative viability ([1]; first compound 0.8 µM)	relative viability ([1]; first compound 2.53 µM)	relative viability ([1]; first compound 8 µM)	relative viability ([2]; first compound 0.08 µM)	relative viability ([2]; first compound 0.253 µM)	relative viability ([2]; first compound 0.8 µM)	relative viability ([2]; first compound 2.53 µM)	relative viability ([2]; first compound 8 µM)	relative viability ([3]; first compound 0.08 µM)	relative viability ([3]; first compound 0.253 µM)	relative viability ([3]; first compound 0.8 µM)	relative viability ([3]; first compound 2.53 µM)	relative viability ([3]; first compound 8 µM)	relative viability ([4]; first compound 0.08 µM)	relative viability ([4]; first compound 0.253 µM)	relative viability ([4]; first compound 0.8 µM)	relative viability ([4]; first compound 2.53 µM)	relative viability ([4]; first compound 8 µM)
EKVX	0.397	0.403	0.47	0.412	0.387	0.205	0.237	0.224	0.221	0.262	0.358	0.398	0.355	0.401	0.29	0.786	0.858	0.932	0.79	0.932
EMC-BAC-2	0.262	0.277	0.27	0.301	0.286	0.496	0.516	0.414	0.509	0.454	0.51	0.529	0.467	0.503	0.47	0.745	0.718	0.705	0.764	0.713
EPLC-272H	0.24	0.286	0.204	0.378	0.271	0.323	0.237	0.268	0.274	0.31	0.323	0.289	0.327	0.378	0.283	0.834	0.799	0.643	0.946	0.887
H3255	0.718	0.626	0.608	0.601	0.642	0.359	0.345	0.361	0.33	0.323	0.326	0.293	0.299	0.317	0.304	0.634	0.664	0.67	0.791	0.81
HARA	0.12	0.138	0.0931	0.115	0.104	0.412	0.394	0.512	0.509	0.477	0.276	0.191	0.261	0.286	0.25	0.805	0.728		0.945	0.827
HCC-15	0.333	0.42	0.395	0.391	0.444	0.524	0.424	0.533	0.462	0.503	0.73	0.767	0.684	0.733	0.755	0.883	0.856	0.913	0.871	0.915
HCC-44	1.08	0.84		0.783	0.852	0.107	0.184		0.145	0.151	0.923	0.954	0.91	0.943	0.97	0.767	0.786	0.876	0.936	0.797
HCC-78	0.402	0.481	0.491	0.486	0.414	0.683	0.621	0.809	0.723	0.716	0.468	0.486	0.465	0.453	0.438	0.379	0.339	0.223	0.287	0.308
HCC-366	0.226	0.0945	0.123	0.0834	0.0885	0.554	0.608	0.626	0.615	0.599	0.365	0.367	0.311	0.437	0.291	0.285	0.386	0.408	0.377	0.392
HCC-827	0.385	0.372	0.369	0.457	0.406	0.37	0.376	0.38	0.367	0.401	0.438	0.417	0.402	0.507	0.467	0.948	0.945	0.952	0.951	0.992
HOP-62	0.406	0.393	0.381	0.367	0.41	0.601	0.654	0.672	0.657	0.665	0.393	0.439	0.365	0.407	0.37	0.998	0.935	0.771	1.03	0.929
LC-2-ad	0.545	0.433		0.421	0.465	0.571	0.541		0.527	0.658	0.473	0.456	0.515	0.549	0.476	0.799	0.842	0.865	0.943	0.926
LCLC-97TM1	0.173	0.214	0.23	0.244	0.18	0.415	0.385	0.44	0.423	0.426	0.254	0.215		0.181	0.191	0.25	0.214	0.167		0.29
LCLC-103H	0.42	0.529	0.572	0.557	0.411	0.3	0.325	0.248	0.294	0.319	0.474	0.408	0.414	0.467	0.454	0.887	0.875	0.749	0.966	1.06
LK-2	0.155	0.17		0.175	0.186	0.365	0.449		0.33	0.264	0.521	0.656		0.679	0.599		1.05		0.929	1.03
LOU-NH91	0.709	0.669	0.696	0.634	0.717	0.673	0.647	0.551	0.677	0.677	0.534	0.514	0.54	0.517	0.544	0.698	0.614	0.613	0.719	0.724
LU99A	0.289	0.293	0.243	0.334	0.297	0.839	0.774	0.706	0.82	0.921	0.38	0.417		0.432	0.382	0.497	0.492	0.402	0.579	0.532
